From patent publication US10919894B2, “Adenine derivatives which are useful in the treatment of allergic diseases or other inflammatory conditions” (GlaxoSmithKline Biologicals SA, priority 2014, dated 2021)

Assays:
hTLR7 = biological target: T1, hTLR7 (Homo sapiens, UniProt Q9NYK1); test: NF-κB SEAP reporter gene assay in HEK293 cells stably transfected with hTLR7; format: cell-based; settings: for EC50: HEK 293, 24 h stimulation, NF-κB SEAP, read-out: TLR7 ED50; for higher TLR7 potency in relation to oxoadenine 3b: HEK293-hTLR7, FIG. 4A
T1 construct: host or cells: HEK293 cells stably transfected with hTLR7 and NF-κB SEAP reporter
T1 sequence (Q9NYK1 27-1049): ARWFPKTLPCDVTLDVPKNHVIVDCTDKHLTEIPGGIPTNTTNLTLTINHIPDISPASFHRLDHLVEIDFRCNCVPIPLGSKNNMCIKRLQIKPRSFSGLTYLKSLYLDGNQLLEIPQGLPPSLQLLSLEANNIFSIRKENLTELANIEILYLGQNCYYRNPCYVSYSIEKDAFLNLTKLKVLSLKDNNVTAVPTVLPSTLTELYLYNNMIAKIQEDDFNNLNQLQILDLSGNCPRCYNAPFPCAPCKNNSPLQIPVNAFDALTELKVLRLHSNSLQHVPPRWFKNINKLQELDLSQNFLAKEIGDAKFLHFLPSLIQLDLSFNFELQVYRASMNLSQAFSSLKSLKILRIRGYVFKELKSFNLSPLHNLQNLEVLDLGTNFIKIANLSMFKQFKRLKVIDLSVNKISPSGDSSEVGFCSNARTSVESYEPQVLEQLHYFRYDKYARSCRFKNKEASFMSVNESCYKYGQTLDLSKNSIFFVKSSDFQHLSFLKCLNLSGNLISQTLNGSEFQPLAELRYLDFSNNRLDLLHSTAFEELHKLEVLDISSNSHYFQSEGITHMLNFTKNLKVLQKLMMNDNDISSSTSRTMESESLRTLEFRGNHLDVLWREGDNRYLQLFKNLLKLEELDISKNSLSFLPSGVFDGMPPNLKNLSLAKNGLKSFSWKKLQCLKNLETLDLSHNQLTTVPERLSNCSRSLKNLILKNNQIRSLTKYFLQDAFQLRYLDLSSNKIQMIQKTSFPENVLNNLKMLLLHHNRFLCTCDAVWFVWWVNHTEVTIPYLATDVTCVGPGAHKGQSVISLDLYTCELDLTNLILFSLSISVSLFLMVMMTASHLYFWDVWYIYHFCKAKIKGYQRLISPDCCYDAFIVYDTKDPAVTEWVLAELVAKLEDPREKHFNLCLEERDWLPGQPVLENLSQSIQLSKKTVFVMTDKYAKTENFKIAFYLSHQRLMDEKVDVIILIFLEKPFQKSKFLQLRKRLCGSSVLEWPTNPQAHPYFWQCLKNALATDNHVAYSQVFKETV
Description: The human (h) TLR7/8 activity of oxoadenines 3a-g was assessed by a reporter gene assay using HEK293 cells stably transfected with either hTLR7 or hTLR8, and with the NF-κB SEAP (secreted embryonic alkaline phosphatase) reporter.
HEK293 cells expressing human TLR7 or TLR8, and NF-κB responsive SEAP reporter gene, were obtained from InvivoGen (San Diego, Calif.). These cells were maintained in culture media of Dulbecco's Modified Eagle Medium (DMEM)
(Invitrogen, Grand Island, N.Y.), 10% Fetal Bovine Serum (FBS) (Sigma, St. Louis, Mo.) and selection antibiotics (Invitrogen and InvivoGen). The stably transfected HEK293 cells were plated in 96-well flat bottom culture plates at 1^E5/well and stimulated for 24 h with a dose range of aqueous formulations of compounds starting at 200 μM, serially diluted to 0.012 μM with 2-fold dilutions (unless formulation conditions warranted lower starting concentrations). Culture supernatants were harvested and assayed for NFKB activation using the colorimetric SEAP detection kit QU ANTI-BLUE (a trademark of InvivoGen).
The assay measured NFKB mediated SEAP production following TLR7 or TLR8 specific activation.
It should be noted that the HEK assay is not optimal for evaluating TLR7 since TLR7 signals via both the NFKB (leading to induction of inflammatory cytokines) and IRF7 pathways (leading to IFN induction) and the HEK system only measures the NFKB side of TLR7 signaling. Oxoadenine 3a was not active on hTLR7 or hTLR8 but the other oxoadenines 3b-g were all active.

hPBMCs [1] = test: TNFα induction in hPBMCs; format: cell-based, human; settings: 24 hours stimulation
Description: (§1) Compounds were dissolved in 2% glycerol in water to working concentrations starting at 10 μM, serially diluted to 0.00013 μM with 5-fold dilutions. This compound preparation was added to 96-well flat bottom plates at a volume of 10 μl.
(§2) An additional 10 μl of media was added to these wells, or another compound preparation if co-stimulation was intended.
Blood samples from human donors were collected into heparinized 60 cc syringes, and divided into 20 ml aliquots in 50 ml conical culture tubes. The whole blood aliquots were then diluted with 15 ml of PBS, and then underlay with 15 ml HISTOPAQUE™. The samples were centrifuged at 800 g for 30 min with no brake and the buffy coat interface carefully removed. The collected cells were centrifuged at 1500 rpm for 5 minutes and the pellet resuspended in 10 ml of PBS. […] After the final wash, the combined cells were brought up in 20 ml complete media (RPMI 1640 supplemented with 10% v/v heat-inactivated Fetal Bovine Serum (FBS), 100 U/ml penicillin G, 100 μg/ml streptomycin, 10 mM L-glutamine), counted using a Countess automated cell counter (Invitrogen, Life Technologies) and diluted to give a final concentration of 2.8×10^6/ml. […]
The induction of cytokines in human peripheral blood mononuclear cells (hPBMCs) after 24 hours stimulation with oxoadenines 3e-g was next evaluated using cytokine ELISA and intracellular cytokine staining (ICS). […]

hPBMCs [2] = test: IFNα induction in hPBMCs; format: cell-based; settings: human PBMCs, FIG. 6
Description: as §1, §2
Blood samples from human donors were collected into heparinized 60 cc syringes, and divided into 20 ml aliquots in 50 ml conical culture tubes. The whole blood aliquots were then diluted with 15 ml of PBS, and then underlay with 15 ml HISTOPAQUE™. The samples were centrifuged at 800 g for 30 min with no brake and the buffy coat interface carefully removed. The collected cells were centrifuged at 1500 rpm for 5 minutes and the pellet resuspended in 10 ml of PBS. The cells were pooled and further washed twice in PBS to remove all HISTOPAQUE™ from the samples. After the final wash, the combined cells were brought up in 20 ml complete media (RPMI 1640 supplemented with 10% v/v heat-inactivated Fetal Bovine Serum (FBS), 100 U/ml penicillin G, 100 μg/ml streptomycin, 10 mM L-glutamine), counted using a Countess automated cell counter (Invitrogen, Life Technologies) and diluted to give a final concentration of 2.8×10^6/ml. […]
The induction of IFNα from hPBMCs upon stimulation with oxoadenines 3a-g was also evaluated. […]

human PBMCs = test: IL-12p70 induction in human PBMCs in combination with CRX601 (TLR4 agonist); format: cell-based; design: key to IL-12p70 w/601: * through ****; lowest to highest cytokine induction level; * through ****; lowest to highest cytokine induction level; * through ****; lowest to highest cytokine induction level; * through ****; lowest to highest cytokine induction level; settings: for IL-12p70 w/601: PBMC/Monocytes, in combination with CRX601; for synergy with CRX601 for IL12-p70: human PBMCs, FIGS. 8A and 8B
Description: as §2
(§3) Blood samples from human donors were collected into heparinized 60 cc syringes, and divided into 20 ml aliquots in 50 ml conical culture tubes. The whole blood aliquots were then diluted with 15 ml of PBS, and then underlay with 15 ml HISTOPAQUE™. The samples were centrifuged at 800 g for 30 min with no brake and the buffy coat interface carefully removed. The collected cells were centrifuged at 1500 rpm for 5 minutes and the pellet resuspended in 10 ml of PBS. The cells were pooled and further washed twice in PBS to remove all HISTOPAQUE™ from the samples. After the final wash, the combined cells were brought up in 20 ml complete media (RPMI 1640 supplemented with 10% v/v heat-inactivated Fetal Bovine Serum (FBS), 100 U/ml penicillin G, 100 μg/ml streptomycin, 10 mM L-glutamine), counted using a Countess automated cell counter (Invitrogen, Life Technologies) and diluted to give a final concentration of 2.8×10^6/ml. This cell suspension was added to the culture plate containing the compound preparations (see above), at a volume of 180 μl, resulting in a total well volume of 200 µl.
After 24 hr incubation (37° C., 95% air, 5% CO2), the supernatants were carefully removed and assayed for cytokine/chemokine induction using multiplex kits (FLUOROKINE™ multiplex kits from R&D Systems [bio-techne], Minneapolis, Minn.) and human IFNa VERIKINE™ ELISA kit (Pestka Biomedical Laboratories, Inc., Piscataway, N.J.).
As previously observed with other oxoadenines (see WO2010/018134), synergy with AGP CRX601 for IL12-p70 was relatively low compared to imidazoquinoline compound CRX642 (see WO2010/048520; PCT/US2009/061867; U.S. Pat. No. 8,624,029) in combination with CRX601.

pDC and mDC in hPBMCs = test: Activation induced apoptosis by Annexin-V staining in pDC and mDC of stimulated hPBMCs; format: cell-based, human; settings: hPBMCs stimulated with various doses
Source text: This observed cell type specific apoptosis correlated with the dose-dependent IFNα and TNFα induction curves.

PBMC/Monocytes = test: Inflammatory cytokine induction in PBMC/Monocytes; format: cell-based, human; design: key: * through ****; lowest to highest cytokine induction level; * through ****; lowest to highest cytokine induction level; * through ****; lowest to highest cytokine induction level; * through ****; lowest to highest cytokine induction level
Description: as §1
as §3, with “µl. […]” for “µl.”

EC50 (hTLR7) [nM] | higher TLR7 potency in relation to oxoadenine 3b (hTLR7) [fold] | SMILES | TNFα induction in hPBMCs (in words) (hPBMCs [1]) | dose at which IFN-alpha is induced (hPBMCs [2]) [nM] | IL-12p70 w/601 (human PBMCs) | synergy with CRX601 for IL12-p70 (human PBMCs) | Annexin-V staining in mDC (pDC and mDC in hPBMCs; mDC) | Annexin-V staining in pDC (pDC and mDC in hPBMCs; pDC) | Infl. Cytok. (PBMC/Monocytes)
6 | 100 | CCC[C@H](C)Oc1nc(N)c2nc(O)n(CCCCCC3CCNCC3)c2n1 [Compound 3x] | high potency | ~1 | ** | demonstrated synergy with CRX601 throughout a wide dose range | – | – | –
26 | 50 | CCCCOc1nc(N)c2[nH]c(=O)n(CCCCCC3CCNCC3)c2n1 [Compound 3f] | high potency | ~1 | ** | demonstrated synergy with CRX601 throughout a wide dose range | not in mDC | dose dependent increase in Annexin-V staining | ***
